{
  "source": "patent US6825348B2",
  "about": "“Antiviral compounds” (Academia Sinica, priority 2002, dated 2004)",
  "key": {"[1]": {"system": "thymidine kinase-deficient (TK−) varicella-zoster virus (YS/R)", "experiment": "microbe, parasite or virus in culture", "type": "cell-based", "conditions": "Vero cell culture; 50% inhibition of cytopathogenicity; for 1:1 mixtures IC50 refers to known antiviral drugs"}, "[2]": {"experiment": "Solubility in water (phosphate buffer, UV absorbance)", "conditions": "phosphate buffer 0.10 M, pH 6.8, agitated 20 h"}, "HIV-2 (LAV-2)": {"system": "HIV-2 (LAV-2)", "experiment": "Inhibition of HIV-2 cytopathogenicity in MT4 cells", "type": "cell-based, human immunodeficiency virus", "conditions": "MT4 cells, average of duplicates"}, "[3]": {"system": "herpes simplex type 2 virus (HSV-2) (G)", "experiment": "Inhibition of HSV-2 cytopathogenicity in Vero cell culture", "type": "cell-based", "conditions": "50% inhibition of cytopathogenicity, for 1:1 mixtures IC50 refers to known antiviral drugs"}, "[4]": {"system": "moloney murine sarcoma virus (MSV)", "experiment": "Inhibition of MSV cytopathogenicity in CEM cells (cell-protection assay)", "type": "cell-based", "conditions": "CEM cells, average of duplicates"}, "HIV-1 (IIIB)": {"system": "HIV-1 (IIIB)", "experiment": "microbe, parasite or virus in culture", "type": "cell-based", "conditions": "MT4 cells, average of duplicates"}, "[5]": {"system": "thymidine kinase-positive (TK+) varicella-zoster virus (YS)", "experiment": "Inhibition of TK+ VZV cytopathogenicity in Vero cell culture", "type": "cell-based", "conditions": "Vero cell culture; 50% inhibition of cytopathogenicity; for 1:1 mixtures IC50 refers to known antiviral drugs"}, "[6]": {"system": "herpes simplex type 1 virus (HSV-1) (KOS)", "experiment": "Inhibition of HSV-1 cytopathogenicity in Vero cell culture", "type": "cell-based", "conditions": "Vero cell culture; 50% inhibition of virus-induced cytopathogenicity; mean of duplicates; for 1:1 (W/W) mixtures IC50 refers to known antiviral drugs"}, "[7]": {"experiment": "Lipophilicity, 1-octanol/water partition coefficient", "conditions": "P = [substrate]1-octanol/[substrate]H2O; phosphate buffer 0.10 M"}, "[8]": {"system": "human cytomegalovirus (AD-169)", "experiment": "Inhibition of HCMV cytopathogenicity in Vero cell culture", "type": "cell-based", "conditions": "Vero cell culture; 50% inhibition of cytopathogenicity; for 1:1 mixtures IC50 refers to known antiviral drugs"}},
  "data": [
    {"substance": "[1-(Guanine-9-yl-ethoxy)methyl]phosphono-6-yl-(Z)-4-(ethylidene)-2,3-dimethoxy-Δ^a,b-butenolide [Compound 29]", "values": [
      {"measurement": "IC50 TK−VZV (YS/R)", "setting": "[1]", "result": 0.0080, "unit": "µg/mL"},
      {"measurement": "Vero cell, concentration causing microscopically visible change or disruption in about 50% of the cell sheet", "setting": "Vero cells", "result": 6.6, "unit": "µg/mL"},
      {"measurement": "CEM cell, concentration reducing the number of viable uninfected cells by 50%", "setting": "CEM cells", "result": 13, "unit": "µg/mL"},
      {"measurement": "solubility in water", "setting": "[2]", "result": 2050, "unit": "µg/mL"},
      {"measurement": "HeLa cell, concentration causing microscopically visible change or disruption in about 50% of the cell sheet", "setting": "HeLa cells", "result": 8.8, "unit": "µg/mL"},
      {"measurement": "MT4 cell, concentration reducing the number of viable uninfected cells by 50%", "setting": "MT4 cells", "result": 14, "unit": "µg/mL"},
      {"measurement": "IC50 HIV-2 (LAV-2)", "setting": "HIV-2 (LAV-2)", "result": 7.1, "unit": "µg/mL"},
      {"measurement": "IC50 HSV-2 (G)", "setting": "[3]", "result": 0.28, "unit": "µg/mL"},
      {"measurement": "IC50 MSV", "setting": "[4]", "result": 0.020, "unit": "µg/mL"},
      {"measurement": "IC50 HIV-1 (IIIB)", "setting": "HIV-1 (IIIB)", "result": 6.0, "unit": "µg/mL"},
      {"measurement": "IC50 TK+VZV (YS)", "setting": "[5]", "result": 0.0070, "unit": "µg/mL"},
      {"measurement": "IC50 HSV-1 (KOS)", "setting": "[6]", "result": 0.42, "unit": "µg/mL"},
      {"measurement": "log P (1-octanol/water)", "setting": "[7]", "result": 0.79},
      {"measurement": "IC50 HCMV (AD-169)", "setting": "[8]", "result": 0.020, "unit": "µg/mL"}
    ]}
  ]
}
